Measurements reported in patent US8940897B2, “1,3,4-oxadiazole and 1,3,4-thiadiazole β-lactamase inhibitors” (priority 2012, dated 2015).
Structures can show the parent of a compound that is named as a salt.

What was measured:
[1] = system: bacterial strains that express the class D cephalosporinase OXA-15; assay: Synergy MIC / standard BLI potentiation MIC assay, strains expressing OXA-15;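 also: more active means a lower MIC or sMIC than Avibactam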; assay type: cell-based, E. coli; conditions: in the presence of a β-lactam; comparator Avibactam (CCC)
In short: (§1)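 CLSI broth microdilution in CAMHB, ~10^5 CFU/mL, 18–20 h at 37 °C with aeration; engineered E. coli kept on 25 μg/mL tetracycline. Potentiation: β-lactam 128–0.13 μg/mL with BLI fixed at 4 μg/mL; synergy MIC: BLI serially diluted with fixed β-lactam. MIC is the lowest concentration without visible turbidity.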

[2] = system: bacterial strains that express KPC β-lactamases; assay: Synergy MIC / standard BLI potentiation MIC assay, strains expressing KPC β-lactamases; assay type: cell-based; conditions: for at least one KPC strain and/or a better spectrum of activity against KPC strains than Avibactam; in the presence of a β-lactam
In short: as §1

Structure (SMILES)	activity against bacterial strains that express OXA-15 β-lactamase compared with Avibactam [1]	activity against bacterial strains that express KPC β-lactamase compared with Avibactam [2]
N[C@@H]1CN[C@@H](c2nnc([C@@H]3CC[C@@H]4CN3C(=O)N4OS(=O)(=O)O)o2)C1 [Compound 763, (2S,5R)-2-(5-((2R,4S)-4-aminopyrrolidin-2-yl)-1,3,4-oxadiazol-2-yl)-7-oxo-1,6-diazabicyclo[3.2.1]octan-6-yl hydrogen sulfate]	more active than Avibactam	more active than Avibactam
O=C1N2C[C@@H](CC[C@H]2c2nnc(CC3CCNC3)o2)N1OS(=O)(=O)O (stereo partly drawn) [Compound 764, (2S,5R)-7-oxo-2-(5-(pyrrolidin-3-ylmethyl)-1,3,4-oxadiazol-2-yl)-1,6-diazabicyclo[3.2.1]octan-6-yl hydrogen sulfate]	more active than Avibactam	more active than Avibactam
O=C1N2C[C@@H](CC[C@H]2c2nnc(CN[C@H]3CCNC3)o2)N1OS(=O)(=O)O [Compound 765, (2S,5R)-7-oxo-2-(5-(((S)-pyrrolidin-3-ylamino)methyl)-1,3,4-oxadiazol-2-yl)-1,6-diazabicyclo[3.2.1]octan-6-yl hydrogen sulfate]	more active than Avibactam	more active than Avibactam
O=C1N2C[C@@H](CC[C@H]2c2nnc(CN[C@@H]3CCNC3)o2)N1OS(=O)(=O)O [Compound 766, (2S,5R)-7-oxo-2-(5-(((R)-pyrrolidin-3-ylamino)methyl)-1,3,4-oxadiazol-2-yl)-1,6-diazabicyclo[3.2.1]octan-6-yl hydrogen sulfate]	more active than Avibactam	more active than Avibactam
N=C1NCC(c2nnc([C@@H]3CC[C@@H]4CN3C(=O)N4OS(=O)(=O)O)o2)N1 (stereo partly drawn) [Compound 767, (2S,5R)-2-(5-(2-iminoimidazolidin-4-yl)-1,3,4-oxadiazol-2-yl)-7-oxo-1,6-diazabicyclo[3.2.1]octan-6-yl hydrogen sulfate]	more active than Avibactam	more active than Avibactam
N[C@H]1CC[C@@H](c2nnc([C@@H]3CC[C@@H]4CN3C(=O)N4OS(=O)(=O)O)o2)C1 [Compound 768, (2S,5R)-2-(5-((1R,3S)-3-aminocyclopentyl)-1,3,4-oxadiazol-2-yl)-7-oxo-1,6-diazabicyclo[3.2.1]octan-6-yl hydrogen sulfate]	more active than Avibactam	more active than Avibactam
O=C1N2C[C@@H](CC[C@H]2c2nnc(CCNC3CCNCC3)o2)N1OS(=O)(=O)O [Compound 770, (2S,5R)-7-oxo-2-(5-(2-(piperidin-4-ylamino)ethyl)-1,3,4-oxadiazol-2-yl)-1,6-diazabicyclo[3.2.1]octan-6-yl hydrogen sulfate]	more active than Avibactam	more active than Avibactam
O=C1N2C[C@@H](CC[C@H]2c2nnc(CCCNC3CCNCC3)o2)N1OS(=O)(=O)O [Compound 771, (2S,5R)-7-oxo-2-(5-(3-(piperidin-4-ylamino)propyl)-1,3,4-oxadiazol-2-yl)-1,6-diazabicyclo[3.2.1]octan-6-yl hydrogen sulfate]	more active than Avibactam	more active than Avibactam
O=C1N2C[C@@H](CC[C@H]2c2nnc(CCCCNC3CCNCC3)o2)N1OS(=O)(=O)O [Compound 772, (2S,5R)-7-oxo-2-(5-(4-(piperidin-4-ylamino)butyl)-1,3,4-oxadiazol-2-yl)-1,6-diazabicyclo[3.2.1]octan-6-yl hydrogen sulfate]	more active than Avibactam	more active than Avibactam
NC1CCN(Cc2nnc([C@@H]3CC[C@@H]4CN3C(=O)N4OS(=O)(=O)O)o2)CC1 [Compound 774, (2S,5R)-2-(5-((4-aminopiperidin-1-yl)methyl)-1,3,4-oxadiazol-2-yl)-7-oxo-1,6-diazabicyclo[3.2.1]octan-6-yl hydrogen sulfate]	more active than Avibactam	more active than Avibactam
O=C1N2C[C@@H](CC[C@H]2c2nnc(CCN3CCNCC3)o2)N1OS(=O)(=O)O [Compound 776, (2S,5R)-7-oxo-2-(5-(2-(piperazin-1-yl)ethyl)-1,3,4-oxadiazol-2-yl)-1,6-diazabicyclo[3.2.1]octan-6-yl hydrogen sulfate]	more active than Avibactam	more active than Avibactam
O=C1N2C[C@@H](CC[C@H]2c2nnc(CN3CCNCC3)o2)N1OS(=O)(=O)O [Compound 777, (2S,5R)-7-oxo-2-(5-(piperazin-1-ylmethyl)-1,3,4-oxadiazol-2-yl)-1,6-diazabicyclo[3.2.1]octan-6-yl hydrogen sulfate]	more active than Avibactam	more active than Avibactam
O=C1N2C[C@@H](CC[C@H]2c2nnc([C@H]3CNCCN3)o2)N1OS(=O)(=O)O [Compound 779, (2S,5R)-7-oxo-2-(5-((R)-piperazin-2-yl)-1,3,4-oxadiazol-2-yl)-1,6-diazabicyclo[3.2.1]octan-6-yl hydrogen sulfate]	more active than Avibactam	more active than Avibactam
N[C@H]1C[C@H](c2nnc([C@@H]3CC[C@@H]4CN3C(=O)N4OS(=O)(=O)O)s2)C1 [Compound 783, (2S,5R)-2-(5-((1r,3S)-3-aminocyclobutyl)-1,3,4-thiadiazol-2-yl)-7-oxo-1,6-diazabicyclo[3.2.1]octan-6-yl hydrogen sulfate]	more active than Avibactam	more active than Avibactam
N=C(N)N[C@H]1C[C@@H](c2nnc([C@@H]3CC[C@@H]4CN3C(=O)N4OS(=O)(=O)O)s2)C1 [Compound 784, (2S,5R)-2-(5-((1s,3R)-3-guanidinocyclobutyl)-1,3,4-thiadiazol-2-yl)-7-oxo-1,6-diazabicyclo[3.2.1]octan-6-yl hydrogen sulfate]	more active than Avibactam	more active than Avibactam
N=C(N)NCCc1nnc([C@@H]2CC[C@@H]3CN2C(=O)N3OS(=O)(=O)O)s1 [Compound 794, (2S,5R)-2-(5-(2-guanidinoethyl)-1,3,4-thiadiazol-2-yl)-7-oxo-1,6-diazabicyclo[3.2.1]octan-6-yl hydrogen sulfate]	more active than Avibactam	more active than Avibactam
N[C@H]1C[C@@H](c2nnc([C@@H]3CC[C@@H]4CN3C(=O)N4OS(=O)(=O)O)s2)C1 [Compound 795, (2S,5R)-2-(5-((1s,3R)-3-aminocyclobutyl)-1,3,4-thiadiazol-2-yl)-7-oxo-1,6-diazabicyclo[3.2.1]octan-6-yl hydrogen sulfate]	more active than Avibactam	more active than Avibactam
